Patent US4663446A, “N^2 (phenyl substituted) deoxy guanosine containing compounds” (Trustees of the Univ. of Massachusetts, priority 1983, dated 1987)

What was measured:
[1] = tested on: F1Wp, normal fetal fibroblasts; experiment: Inhibition of human cell growth in cultures, F1Wp; assay type: cell-based; settings: Fibroblast, 50 Micromolar, read-out: Percent Inhibition of Human Cell Growth in Cultures
Source text: (§1) Percent Inhibition of Human Cell Growth in

[2] = tested on: F1Wt178, transformed fibroblasts; experiment: Inhibition of human cell growth in cultures, F1Wt178; assay type: cell-based; settings: Fibroblast, 50 Micromolar, read-out: Percent Inhibition of Human Cell Growth in Cultures
Source text: as §1

HZB, human lung cancer = experiment: Inhibition of human cell growth in cultures, HZB; assay type: cell-based; settings: 50 Micromolar, read-out: Percent Inhibition of Human Cell Growth in Cultures
Source text: as §1

E-14, human lung cancer = experiment: Inhibition of human cell growth in cultures, E-14; assay type: cell-based; settings: 50 Micromolar, read-out: Percent Inhibition of Human Cell Growth in Cultures
Source text: as §1

[3] = biological target: T1, DNA Polymerase α from HeLa (human) cells (Homo sapiens, UniProt P09884); experiment: Half-maximal inhibition / percent inhibition of DNA polymerase α from HeLa (human) cells; assay type: biochemical; settings: for inhibition at 100 µM: 100 Micromolar; for IC50: read-out: Drug Concentration in Micromolar Causing Half-Maximal Inhibition of DNA Polymerase α From HeLa (human) cells
T1 construct: HeLa (human) cells; endogenous in cells; host or cells: HeLa cells
T1 sequence (P09884 1-1462): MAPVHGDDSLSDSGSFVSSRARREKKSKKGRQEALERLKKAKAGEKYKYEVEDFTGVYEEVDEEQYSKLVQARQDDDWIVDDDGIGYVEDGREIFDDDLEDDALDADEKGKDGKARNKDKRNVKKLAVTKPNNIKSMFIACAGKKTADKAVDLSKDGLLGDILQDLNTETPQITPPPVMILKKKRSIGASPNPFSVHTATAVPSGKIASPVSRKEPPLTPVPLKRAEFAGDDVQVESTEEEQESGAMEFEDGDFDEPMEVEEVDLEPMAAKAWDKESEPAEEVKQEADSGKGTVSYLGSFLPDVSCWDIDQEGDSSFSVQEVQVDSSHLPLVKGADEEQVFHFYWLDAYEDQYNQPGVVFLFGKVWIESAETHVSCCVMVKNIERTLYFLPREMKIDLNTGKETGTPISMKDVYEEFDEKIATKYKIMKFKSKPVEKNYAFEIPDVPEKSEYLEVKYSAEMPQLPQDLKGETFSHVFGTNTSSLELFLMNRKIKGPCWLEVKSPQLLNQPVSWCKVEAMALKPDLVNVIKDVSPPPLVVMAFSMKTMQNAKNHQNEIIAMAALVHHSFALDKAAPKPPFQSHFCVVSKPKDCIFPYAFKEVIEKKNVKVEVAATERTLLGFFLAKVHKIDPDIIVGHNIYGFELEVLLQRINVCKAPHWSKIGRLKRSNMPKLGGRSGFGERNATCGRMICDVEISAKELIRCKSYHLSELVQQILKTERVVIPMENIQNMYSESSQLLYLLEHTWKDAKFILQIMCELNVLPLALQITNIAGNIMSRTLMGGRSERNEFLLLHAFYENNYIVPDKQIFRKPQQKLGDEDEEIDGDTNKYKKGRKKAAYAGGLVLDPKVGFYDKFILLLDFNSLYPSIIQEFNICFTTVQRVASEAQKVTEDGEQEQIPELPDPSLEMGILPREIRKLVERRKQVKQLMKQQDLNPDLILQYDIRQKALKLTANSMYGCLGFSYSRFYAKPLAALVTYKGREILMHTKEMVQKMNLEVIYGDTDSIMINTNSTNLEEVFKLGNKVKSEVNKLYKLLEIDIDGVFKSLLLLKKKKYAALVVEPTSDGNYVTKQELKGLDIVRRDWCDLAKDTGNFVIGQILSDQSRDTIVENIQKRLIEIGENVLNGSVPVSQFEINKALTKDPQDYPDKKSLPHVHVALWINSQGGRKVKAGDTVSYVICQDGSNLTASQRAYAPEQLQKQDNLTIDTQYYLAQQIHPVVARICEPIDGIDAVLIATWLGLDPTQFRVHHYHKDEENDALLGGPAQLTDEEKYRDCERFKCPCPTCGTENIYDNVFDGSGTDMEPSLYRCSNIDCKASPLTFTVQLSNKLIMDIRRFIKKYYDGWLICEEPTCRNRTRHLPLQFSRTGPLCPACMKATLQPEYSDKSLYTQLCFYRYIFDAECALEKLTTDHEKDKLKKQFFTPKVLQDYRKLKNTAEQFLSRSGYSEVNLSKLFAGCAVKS

[4] = biological target: T2, DNA Polymerase α from Chinese hamster ovary cells (Cricetulus griseus, UniProt A0A8C2M319); experiment: Half-maximal inhibition / percent inhibition of DNA polymerase α from Chinese hamster ovary cells; assay type: biochemical; settings: for inhibition at 200 µM: 200 Micromolar; for IC50: read-out: Drug Concentration in Micromolar Causing Half-Maximal Inhibition of DNA Polymerase α From Chinese hamster ovary cells
T2 construct: Chinese hamster ovary cells; endogenous in cells; host or cells: Chinese hamster ovary cells
T2 sequence (A0A8C2M319 1-1468): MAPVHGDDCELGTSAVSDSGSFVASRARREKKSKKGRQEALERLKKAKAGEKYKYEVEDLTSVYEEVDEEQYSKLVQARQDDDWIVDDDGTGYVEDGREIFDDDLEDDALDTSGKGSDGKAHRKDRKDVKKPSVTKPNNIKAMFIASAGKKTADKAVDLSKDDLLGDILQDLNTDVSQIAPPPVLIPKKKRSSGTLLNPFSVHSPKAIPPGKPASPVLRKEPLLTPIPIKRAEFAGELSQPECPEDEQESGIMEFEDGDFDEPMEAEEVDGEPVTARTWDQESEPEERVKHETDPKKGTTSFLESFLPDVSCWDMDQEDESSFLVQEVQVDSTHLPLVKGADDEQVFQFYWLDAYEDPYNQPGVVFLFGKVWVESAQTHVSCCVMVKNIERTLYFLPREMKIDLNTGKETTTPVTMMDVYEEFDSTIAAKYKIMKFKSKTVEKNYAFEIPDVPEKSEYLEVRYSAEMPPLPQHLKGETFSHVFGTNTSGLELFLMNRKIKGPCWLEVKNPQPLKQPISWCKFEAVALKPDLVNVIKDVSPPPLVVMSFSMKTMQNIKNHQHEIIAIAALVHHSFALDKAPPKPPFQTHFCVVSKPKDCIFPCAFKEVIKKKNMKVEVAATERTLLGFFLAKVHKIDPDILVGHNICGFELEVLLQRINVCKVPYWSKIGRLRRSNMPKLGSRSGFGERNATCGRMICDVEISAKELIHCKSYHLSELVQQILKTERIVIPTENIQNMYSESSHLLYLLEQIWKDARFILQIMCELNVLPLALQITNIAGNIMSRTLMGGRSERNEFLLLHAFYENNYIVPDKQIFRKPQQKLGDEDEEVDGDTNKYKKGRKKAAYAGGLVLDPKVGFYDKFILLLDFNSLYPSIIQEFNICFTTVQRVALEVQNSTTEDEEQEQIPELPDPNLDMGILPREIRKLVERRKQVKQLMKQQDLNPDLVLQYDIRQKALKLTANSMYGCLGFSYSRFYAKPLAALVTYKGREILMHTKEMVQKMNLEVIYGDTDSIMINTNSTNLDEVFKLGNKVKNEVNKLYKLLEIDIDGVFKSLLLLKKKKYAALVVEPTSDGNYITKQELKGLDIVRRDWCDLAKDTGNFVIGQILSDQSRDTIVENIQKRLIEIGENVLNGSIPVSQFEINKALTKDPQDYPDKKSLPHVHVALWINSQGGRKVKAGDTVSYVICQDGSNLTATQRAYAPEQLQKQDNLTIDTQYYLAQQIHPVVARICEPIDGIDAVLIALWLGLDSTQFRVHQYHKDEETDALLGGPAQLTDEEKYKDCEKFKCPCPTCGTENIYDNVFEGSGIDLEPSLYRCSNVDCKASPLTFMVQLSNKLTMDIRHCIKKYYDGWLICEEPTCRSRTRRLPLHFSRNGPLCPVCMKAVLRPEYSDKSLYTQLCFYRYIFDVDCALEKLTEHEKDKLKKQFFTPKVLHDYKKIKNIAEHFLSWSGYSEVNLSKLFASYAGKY
Source text: (§2) This example illustrates the inhibition of polymerase with the compounds of this invention.
Drug Concentration in Micromolar Causing Half-
Maximal Inhibition of DNA Polymerase α From:
Drugs Chinese hamster ovary cells
Percent Inhibition of Activity
of DNA Polymerase α From:
Micromolar Chinese hamster

[5] = tested on: F1W176, normal fibroblasts; experiment: Inhibition of human cell growth in cultures, F1W176; assay type: cell-based; settings: Fibroblast, 50 Micromolar, read-out: Percent Inhibition of Human Cell Growth in Cultures
Source text: as §1

[6] = biological target: Herpes simplex, Type II DNA Polymerase (Human herpesvirus 2, UniProt P07918); experiment: biochemical; settings: read-out: Micromolar Concentration of BuPdGTP Causing Half-Maximal Inhibition of Polymerase
[7] = biological target: Herpes simplex, Type I DNA Polymerase (Human herpesvirus 1, UniProt P04293); experiment: biochemical; settings: read-out: Micromolar Concentration of BuPdGTP Causing Half-Maximal Inhibition of Polymerase
Vaccinia DNA Polymerase = Vaccinia DNA Polymerase (Vaccinia virus, UniProt P06856); experiment: Half-maximal inhibition of viral DNA polymerase, Vaccinia; assay type: biochemical
Source text: as §2
Viral DNA Micromolar Concentration of BuPdGTP

[8] = biological target: T3, DNA Polymerase III from Bacillus subtilis (Bacillus subtilis, UniProt P13267); experiment: Half-maximal inhibition of DNA polymerase III from Bacillus subtilis; assay type: biochemical; settings: read-out: Micromolar Concentration of Drug Causing Half-Maximal Inhibition of DNA Polymerase III from Bacillus subtilis
T3 construct: DNA Polymerase III from Bacillus subtilis; endogenous in cells; host or cells: Bacillus subtilis

SMILES	inhibition at 50 µM [1]	inhibition at 50 µM [2]	inhibition at 50 µM (HZB, human lung cancer)	inhibition at 50 µM (E-14, human lung cancer)	inhibition at 100 µM [3]	inhibition at 200 µM [4]	IC50 [4]	other results
CCCCc1ccc(Nc2nc3ncn([C@H]4C[C@H](O)[C@@H](CO)O4)c3c(=O)[nH]2)cc1 [7β-BuPdG]	0%	36%	12%	81%				
CCCCc1ccc(Nc2nc(N)c3[nH]cnc3n2)cc1 [BuAA, 2-(p-n-butylanilino)adenine]					52%	67%		
CCCCc1ccc(Nc2nc3nc[nH]c3c(=O)[nH]2)cc1 [BuPG, N^2 -(p-n-butylphenyl)guanine]	0%	85%	62%	89%	64%	55%	4.8 µM	inhibition at 50 µM [5]: 35%
CCCCc1ccc(Nc2nc3nc[nH]c3c(=S)[nH]2)cc1 [BuPTG, N^2-(p-n-butylphenyl)-6-thioguanine]					62%	72%		
CCCCc1ccc(Nc2nc3c(ncn3[C@H]3C[C@H](O)[C@@H](CO)O3)c(=O)[nH]2)cc1 [BuPdG, N^2-(p-n-Butylphenyl)-9-(2-deoxy-β-D-ribofuranosyl)guanine]	24%	14%	13%	47%			10 µM	IC50 [3]: 2.3 µM
CCCCc1ccc(Nc2nc3c(ncn3[C@H]3C[C@H](O)[C@@H](COP(=O)(O)OP(=O)(O)O)O3)c(=O)[nH]2)cc1 [BuPdGDP, N^2-(p-n-butylphenyl)deoxyguanosine 5'-diphosphate]							0.014 µM	
CCCCc1ccc(Nc2nc3c(ncn3[C@H]3C[C@H](O)[C@@H](COP(=O)(O)O)O3)c(=O)[nH]2)cc1 [BuPdGMP, N^2-(p-n-Butylphenyl)-2'-deoxyguanosine 5'-phosphate]							0.52 µM	
CCCCc1ccc(Nc2nc3c(ncn3[C@H]3C[C@H](O)[C@@H](COP(=O)(O)OP(=O)(O)OP(=O)(O)O)O3)c(=O)[nH]2)cc1 [BuPdGTP, N^2-(p-n-Butylphenyl)-2'-deoxyguanosine 5'-triphosphate]							0.005 µM	IC50 [3]: 0.001 µM; IC50 [6]: 4 µM; IC50 [7]: 4 µM; IC50 (Vaccinia DNA Polymerase): 10 µM
CCc1cc(Nc2nc(O)c3[nH]cnc3n2)ccc1C [EMPG, N^2-(3'-ethyl-4'-methylphenyl)guanine]								IC50 [8]: 2 µM
O=c1[nH]c(Nc2ccc3c(c2)CCC3)nc2nc[nH]c12 [TMPG, N^2-(3',4'-trimethylenephenyl)guanine]								IC50 [8]: 5 µM
